Data: patent US20260097037A1, “FUSED RING COMPOUND HAVING GLP-1 RECEPTOR AGONIST EFFECT” (Shionogi & Co., Ltd., priority 2022, published 2026)
pEC50: −log10 of the molar value. Where two headings read alike, the source gives them in different places.

Target: T1, Human GLP-1 receptor stably expressing cells (hGLP-1R/CHO-K1 cells) (Homo sapiens, UniProt P43220)
T1 construct: expressed in transfected cells
Test: Measurement of GLP-1 receptor agonist activity (cAMP assay)
Format: cell-based
Conditions: for Emax: cAMP with 2 nM human GLP-1 (7-36) = 100%, DMSO only = 0%; for pEC50: increase in cAMP concentration in hGLP-1R/CHO-K1 cells, 37° C. 1 hour
Experimental: Test Example 1: Measurement of GLP-1 Receptor Agonist Activity
Human GLP-1 receptor stably expressing cells (hGLP-1R/CHO-K1 cells) are cultured in an a-MEM medium (Sigma) containing 10% FBS (Hyclone), 2% GlutaMAX (Gibco), 1% G418 (Nacalai Tesque), and 1% Penicillin-Streptomycin Mixed Solution (Sigma) at 37° C. under 5% CO2 conditions, and recovered by treating a 10 fold diluted 5.0 g/1-trypsin/5.3 mmol/1-EDTA solution (Nacalai Tesque) and cryopreserved.
A DMSO solution containing the compound of the present invention or human GLP-1 (7-36) (Phoenix Pharmaceuticals) is dispensed into a 384-well microplate (Greiner) at 62.5 nL/well, and in addition, 400 μM Forskolin (Nacalai Tesque) is dispensed therein at 7.5 nL/well. Subsequently, the frozen GLP-1 R/CHO-K1 cells are thawed in a thermostatic bath at 37° C., suspended in HBSS buffer (GIBCO) containing 0.1% BSA (Sigma), 20 mM HEPES, 0.1 mM IBMX (Sigma), and 0.2 mM RO20-1724 (Calbiochem) at 2×10^4 cells/mL, and the cell suspension is added at 6 μL/well. The solution was incubated at 37° C. for 1 hour and intracellular cAMP concentration is measured using cAMP Gs dynamic kit (Cisbio) according to the protocol attached to the product. Specifically, a cAMP-d2/Anti-cAMP-Cryptate (1/1) mixture solution is added in a total amount of 6 μL/well, and is incubated at room temperature for 1 hour, and then, time-resolved fluorescence is measured using PHERAstar (BMG Labtech).
Assuming that the cAMP concentration when human GLP-1 (7-36) is dispensed to a final concentration of 2 nM is 100% and the cAMP concentration when only DMSO is dispensed is 0%, the 50% effective concentration (EC50) and the maximum effect (Emax) of the compound of the present invention are calculated using an increase in the cAMP concentration as an index, using TIBCO Spotfire (TIBCO Software). The dilution concentration or the dilution solvent are changed as necessary.
The compounds of the present invention were tested essentially as described above.

[1] = CHO-K1, maximum effect, read-out: Emax

T1 sequence (P43220 24-463): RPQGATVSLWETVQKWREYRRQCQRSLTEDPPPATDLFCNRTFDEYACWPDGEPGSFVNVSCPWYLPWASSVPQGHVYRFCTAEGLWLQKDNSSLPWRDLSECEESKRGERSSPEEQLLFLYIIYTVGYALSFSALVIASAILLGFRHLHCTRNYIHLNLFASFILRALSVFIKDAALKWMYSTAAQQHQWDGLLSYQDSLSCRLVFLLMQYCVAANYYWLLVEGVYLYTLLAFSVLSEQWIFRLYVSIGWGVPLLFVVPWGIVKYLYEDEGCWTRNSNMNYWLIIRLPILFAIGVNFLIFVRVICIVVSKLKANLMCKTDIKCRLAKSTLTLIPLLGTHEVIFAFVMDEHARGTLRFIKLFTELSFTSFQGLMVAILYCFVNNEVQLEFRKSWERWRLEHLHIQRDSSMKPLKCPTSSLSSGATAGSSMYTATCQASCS

| Structure (SMILES) | Emax [1] | pEC50 | Emax (maximum effect) |
| --- | --- | --- | --- |
| C[C@H]1c2c(cc(C(F)(F)F)c3c2OC(C)(c2ccc(Cl)cc2F)O3)CCN1Cc1nc2ccc(C(=O)O)cc2n1C[C@@H]1CCO1 (mixture of isomers) [Compound I-015] | 93.3% | 8.63 |  |
| O=C(O)c1ccc2nc(Cc3ccc4nc(C(F)(F)F)c(OCc5ccc(Cl)cc5F)nc4c3F)n(C[C@@H]3CCO3)c2c1F [Compound I-001] | 100% | 9.27 |  |
| Cc1cc2c(nc1OCc1ccc(Cl)cc1F)[C@H](C)N(Cc1nc3ccc(C(=O)O)cc3n1C[C@@H]1CCO1)CC2 [Compound I-002] | 109% | 9.77 |  |
| C[C@H]1c2cc(OCc3ccc(Cl)cn3)c(C(F)F)cc2CCN1Cc1nc2ccc(C(=O)O)cc2n1C[C@@H]1CCO1 [Compound I-003] | 102% | 8.44 |  |
| C[C@H]1c2cc(OCc3ccc(Cl)cc3)c(C(F)F)cc2CCN1Cc1nc2ccc(C(=O)O)cc2n1C[C@@H]1CCO1 [Compound I-004] | 105% | 8.54 |  |
| Cc1ccc(COc2cc3c(cc2C(F)F)CCN(Cc2nc4ccc(C(=O)O)cc4n2C[C@@H]2CCO2)[C@H]3C)cc1 [Compound I-005] | 111% | 8.47 |  |
| COc1cc(Cl)ccc1COc1cc2c(cc1C(F)F)CCN(Cc1nc3ccc(C(=O)O)cc3n1C[C@@H]1CCO1)[C@H]2C [Compound I-006] | 130% | 9.51 |  |
| C[C@H]1c2cc(OCc3ccccc3Cl)c(C(F)F)cc2CCN1Cc1nc2ccc(C(=O)O)cc2n1C[C@@H]1CCO1 [Compound I-007] | 88% | 8.10 |  |
| C[C@H]1c2cc(OCc3ccc(F)cc3F)c(C(F)F)cc2CCN1Cc1nc2ccc(C(=O)O)cc2n1C[C@@H]1CCO1 [Compound I-008] | 107% | 8.41 |  |
| C[C@H]1c2cc(OCc3ccc(Cl)cc3Cl)c(C(F)F)cc2CCN1Cc1nc2ccc(C(=O)O)cc2n1C[C@@H]1CCO1 [Compound I-009] | 122% | 9.01 |  |
| C[C@H]1c2cc(OCc3cc(F)c(Cl)cc3F)c(C(F)F)cc2CCN1Cc1nc2ccc(C(=O)O)cc2n1C[C@@H]1CCO1 [Compound I-010] | 117% | 8.70 |  |
| C[C@H]1c2cc(OCc3ccc(F)cc3)c(C(F)F)cc2CCN1Cc1nc2ccc(C(=O)O)cc2n1C[C@@H]1CCO1 [Compound I-011] | 102% | 7.79 |  |
| C[C@H]1c2cc(OCc3c(F)cc(Cl)cc3F)c(C(F)F)cc2CCN1Cc1nc2ccc(C(=O)O)cc2n1C[C@@H]1CCO1 [Compound I-012] | 108% | 8.90 |  |
| C[C@H]1c2cc(OCc3c(F)cc(F)cc3F)c(C(F)F)cc2CCN1Cc1nc2ccc(C(=O)O)cc2n1C[C@@H]1CCO1 [Compound I-013] | 114% | 8.38 |  |
| C[C@H]1c2nc(OCc3ccc(Cl)c4ccoc34)c(C(F)(F)F)cc2CCN1Cc1nc2ccc(C(=O)O)cc2n1C[C@@H]1CCO1 [Compound I-014] | 128% | 9.77 |  |
| C[C@H]1c2nc(OCc3ccc(Cl)cc3)c(Cl)cc2CCN1Cc1nc2ccc(C(=O)O)cc2n1C[C@@H]1CCO1 [Compound I-017] | 136% | 9.77 |  |
| Cc1ccc(COc2nc3c(cc2Cl)CCN(Cc2nc4ccc(C(=O)O)cc4n2C[C@@H]2CCO2)[C@H]3C)cc1 [Compound I-018] |  | 9.46 | 133% |
| C[C@H]1c2nc(OCc3ccc(F)cc3F)c(Cl)cc2CCN1Cc1nc2ccc(C(=O)O)cc2n1C[C@@H]1CCO1 [Compound I-019] | 124% | 9.75 |  |
| C[C@H]1c2nc(OCc3ccc(Cl)cc3Cl)c(Cl)cc2CCN1Cc1nc2ccc(C(=O)O)cc2n1C[C@@H]1CCO1 [Compound I-020] | 135% | 10.01 |  |
| C[C@H]1c2nc(OCc3cc(F)c(Cl)cc3F)c(Cl)cc2CCN1Cc1nc2ccc(C(=O)O)cc2n1C[C@@H]1CCO1 [Compound I-021] | 112% | 10.08 |  |
| C[C@H]1c2nc(OCc3ccc(C#N)cc3F)c(Cl)cc2CCN1Cc1nc2ccc(C(=O)O)cc2n1C[C@@H]1CCO1 [Compound I-022] | 112% | 9.90 |  |
| C[C@H]1c2nc(OCc3ccc(F)cc3)c(Cl)cc2CCN1Cc1nc2ccc(C(=O)O)cc2n1C[C@@H]1CCO1 [Compound I-023] | 130% | 9.35 |  |

| Structure (SMILES) | Emax [1] | pEC50 | Emax (maximum effect) |
| --- | --- | --- | --- |
| C[C@H]1c2nc(OCc3c(F)cc(Cl)cc3F)c(Cl)cc2CCN1Cc1nc2ccc(C(=O)O)cc2n1C[C@@H]1CCO1 [Compound I-024] | 124% | 9.93 |  |
| C[C@H]1c2nc(OCc3c(F)cc(F)cc3F)c(Cl)cc2CCN1Cc1nc2ccc(C(=O)O)cc2n1C[C@@H]1CCO1 [Compound I-025] | 113% | 9.51 |  |
| C[C@H]1c2c(cc(C(F)(F)F)c3c2O[C@](C)(c2ccc(Cl)cn2)O3)CCN1Cc1nc2ccc(C(=O)O)cc2n1C[C@@H]1CCO1 [Compound I-026] | 53.3% | 5.38 |  |
| C[C@H]1c2c(cc(C(F)(F)F)c3c2O[C@@](C)(c2ccc(Cl)cn2)O3)CCN1Cc1nc2ccc(C(=O)O)cc2n1C[C@@H]1CCO1 [Compound I-027] | 119% | 9.15 |  |
| Cc1ccc(COc2nc3c(cc2Cl)CCN(Cc2nc4ccc(C(=O)O)cc4n2C[C@@H]2CCO2)[C@H]3C)cc1 [Compound I-028] |  | 9.13 | 110% |
| C[C@H]1c2nc(OCc3ccc(F)cc3F)c(Cl)cc2CCN1Cc1nc2ccc(C(=O)O)nc2n1C[C@@H]1CCO1 [Compound I-029] | 105% | 9.23 |  |
| C[C@H]1c2nc(OCc3ccc(Cl)cc3Cl)c(Cl)cc2CCN1Cc1nc2ccc(C(=O)O)nc2n1C[C@@H]1CCO1 [Compound I-030] | 123% | 9.43 |  |
| C[C@H]1c2nc(OCc3cc(F)c(Cl)cc3F)c(Cl)cc2CCN1Cc1nc2ccc(C(=O)O)nc2n1C[C@@H]1CCO1 [Compound I-031] | 118% | 9.50 |  |
| C[C@H]1c2nc(OCc3ccc(C#N)cc3F)c(Cl)cc2CCN1Cc1nc2ccc(C(=O)O)nc2n1C[C@@H]1CCO1 [Compound I-032] | 126% | 9.43 |  |
| C[C@H]1c2nc(OCc3c(F)cc(Cl)cc3F)c(Cl)cc2CCN1Cc1nc2ccc(C(=O)O)nc2n1C[C@@H]1CCO1 [Compound I-033] | 111% | 9.36 |  |
| C[C@H]1c2nc(OCc3ccc(Cl)cc3F)c(Cl)cc2CCN1Cc1nc2ccc(C(=O)O)nc2n1C[C@@H]1CCO1 [Compound I-034] | 103% | 9.60 |  |
| Cc1ccc(COc2nc3c(cc2Cl)CCN(Cc2nc4ccc(C(=O)O)c(F)c4n2C[C@@H]2CCO2)[C@H]3C)cc1 [Compound I-035] | 124% | 9.80 |  |
| C[C@H]1c2nc(OCc3ccccc3Cl)c(Cl)cc2CCN1Cc1nc2ccc(C(=O)O)c(F)c2n1C[C@@H]1CCO1 [Compound I-036] | 113% | 9.36 |  |
| C[C@H]1c2nc(OCc3ccc(F)cc3F)c(Cl)cc2CCN1Cc1nc2ccc(C(=O)O)c(F)c2n1C[C@@H]1CCO1 [Compound I-037] | 122% | 9.98 |  |
| C[C@H]1c2nc(OCc3ccc(Cl)cc3Cl)c(Cl)cc2CCN1Cc1nc2ccc(C(=O)O)c(F)c2n1C[C@@H]1CCO1 [Compound I-038] | 126% | 10.23 |  |
| C[C@H]1c2nc(OCc3cc(F)c(Cl)cc3F)c(Cl)cc2CCN1Cc1nc2ccc(C(=O)O)c(F)c2n1C[C@@H]1CCO1 [Compound I-040] | 129% | 10.17 |  |
| C[C@H]1c2nc(OCc3ccc(C#N)cc3F)c(Cl)cc2CCN1Cc1nc2ccc(C(=O)O)c(F)c2n1C[C@@H]1CCO1 [Compound I-041] | 145% | 10.20 |  |
| C[C@H]1c2nc(OCc3ccc(F)cc3)c(Cl)cc2CCN1Cc1nc2ccc(C(=O)O)c(F)c2n1C[C@@H]1CCO1 [Compound I-042] | 127% | 9.68 |  |
| C[C@H]1c2cc(OCc3c(F)cc(Cl)cc3F)c(Cl)cc2CCN1Cc1nc2ccc(C(=O)O)c(F)c2n1C[C@@H]1CCO1 [Compound I-043] | 118% | 10.19 |  |
| C[C@H]1c2cc(OCc3c(F)cc(F)cc3F)c(Cl)cc2CCN1Cc1nc2ccc(C(=O)O)c(F)c2n1C[C@@H]1CCO1 [Compound I-044] | 126% | 9.96 |  |
| C[C@H]1c2nc(OCc3ccc(Cl)cc3F)c(Cl)cc2CCN1Cc1nc2ccc(C(=O)O)c(F)c2n1C[C@@H]1CCO1 [Compound I-045] | 131% | 10.46 |  |
| C[C@H]1c2c(cc(C(F)(F)F)c3c2O[C@](C)(c2ccc(Cl)cc2F)O3)CCN1Cc1nc2ccc(C(=O)O)cc2n1C[C@@H]1CCO1 [Compound I-046] | 112% | 6.17 |  |
